The source of these data is ChEMBL document CHEMBL5465560, “Selectivity Literature for EUbOPEN Chemogenomic Library” (2024).

Assay [1] addresses Protein kinase C delta type (Homo sapiens) (UniProt Q05655). In words: Selectivity interaction (Kinase panel (Z-LYTE Assay)) EUB0001632a PRKCD. The note with it: at 10 µM.
In assay [2] the target is T1, Mitogen-activated protein kinase kinase kinase 6 (Homo sapiens) (UniProt O95382).
T1 sequence (whole entry): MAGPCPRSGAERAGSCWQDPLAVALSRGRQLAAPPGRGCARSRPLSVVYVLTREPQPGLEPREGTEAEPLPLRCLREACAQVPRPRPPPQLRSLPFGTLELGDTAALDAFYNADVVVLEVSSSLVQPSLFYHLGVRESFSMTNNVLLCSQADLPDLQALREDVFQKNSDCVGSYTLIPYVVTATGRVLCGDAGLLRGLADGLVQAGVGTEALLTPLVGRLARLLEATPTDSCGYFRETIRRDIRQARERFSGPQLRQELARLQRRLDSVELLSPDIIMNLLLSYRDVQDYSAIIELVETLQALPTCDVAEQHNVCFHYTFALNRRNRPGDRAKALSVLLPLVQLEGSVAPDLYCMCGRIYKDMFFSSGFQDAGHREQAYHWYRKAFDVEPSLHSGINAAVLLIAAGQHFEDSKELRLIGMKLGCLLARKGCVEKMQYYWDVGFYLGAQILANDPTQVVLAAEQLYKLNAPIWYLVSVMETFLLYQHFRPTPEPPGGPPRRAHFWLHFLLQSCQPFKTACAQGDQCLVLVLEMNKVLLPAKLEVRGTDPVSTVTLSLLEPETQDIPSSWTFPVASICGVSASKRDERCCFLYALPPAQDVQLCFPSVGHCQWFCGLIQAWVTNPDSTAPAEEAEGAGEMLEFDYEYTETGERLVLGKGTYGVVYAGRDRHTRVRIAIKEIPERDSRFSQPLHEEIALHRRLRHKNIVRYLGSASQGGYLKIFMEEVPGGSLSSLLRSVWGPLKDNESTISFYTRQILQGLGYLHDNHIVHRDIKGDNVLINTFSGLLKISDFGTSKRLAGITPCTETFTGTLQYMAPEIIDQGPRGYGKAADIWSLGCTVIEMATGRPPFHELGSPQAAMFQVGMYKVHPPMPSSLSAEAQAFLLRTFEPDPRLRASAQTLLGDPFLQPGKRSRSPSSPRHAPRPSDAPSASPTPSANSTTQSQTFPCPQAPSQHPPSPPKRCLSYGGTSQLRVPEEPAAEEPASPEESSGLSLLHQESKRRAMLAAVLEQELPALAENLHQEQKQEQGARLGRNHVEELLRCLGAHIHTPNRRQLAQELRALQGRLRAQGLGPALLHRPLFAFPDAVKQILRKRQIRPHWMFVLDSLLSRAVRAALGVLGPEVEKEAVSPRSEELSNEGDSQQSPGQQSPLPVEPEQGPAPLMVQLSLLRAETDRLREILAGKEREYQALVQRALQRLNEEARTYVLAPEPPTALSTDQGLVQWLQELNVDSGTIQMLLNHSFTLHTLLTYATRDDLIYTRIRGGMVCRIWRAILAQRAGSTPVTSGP
In words: Selectivity interaction (KinomeScan (DiscoverX)) EUB0000595a MAP3K6. Conditions: at 10 µM.

The target in assay [3] is DNA-dependent protein kinase catalytic subunit (Homo sapiens) (UniProt P78527). In words: Selectivity interaction (ActivX KiNativ screen (ex vivo kinase selectivity in human PBMCs)) EUB0001619a PRKDC. Type of assay: cell-based. The note with it: PBMC, at 1 µM.
For assay [4], the target named is Leukotriene B4 receptor 1 (Homo sapiens) (UniProt Q15722). The assay can be described thus: Selectivity interaction (Eurofins CEREP Diversity Profile (receptors and ion channels)) EUB0000279b LTB4R. The note with it: at 10 µM.
Chain of Leukotriene B4 receptor 1 (Homo sapiens) (Q15722 whole entry): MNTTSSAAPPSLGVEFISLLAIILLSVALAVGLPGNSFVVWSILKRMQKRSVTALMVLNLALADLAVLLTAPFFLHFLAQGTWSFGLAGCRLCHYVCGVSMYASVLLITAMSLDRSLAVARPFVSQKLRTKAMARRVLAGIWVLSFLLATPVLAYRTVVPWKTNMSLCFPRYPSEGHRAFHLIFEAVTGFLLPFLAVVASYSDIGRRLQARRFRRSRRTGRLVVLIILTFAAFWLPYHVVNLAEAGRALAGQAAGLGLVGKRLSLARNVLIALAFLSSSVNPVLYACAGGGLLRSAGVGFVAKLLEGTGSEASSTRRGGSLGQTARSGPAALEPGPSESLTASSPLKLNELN
Assay [5] has as its system Epidermal growth factor receptor (Homo sapiens), P00533 [UNDEFINED MUTATION]. The assay can be described thus: Selectivity interaction (KinomeScan (DiscoverX)) EUB0000666a EGFR. Conditions: at 10 µM.
Assay [6] deals with High affinity nerve growth factor receptor (Homo sapiens, UniProt P04629). The assay can be described thus: Selectivity interaction (Kinase panel (literature)) EUB0001199aCl NTRK1. Conditions: at 1 µM.
Chain of High affinity nerve growth factor receptor (P04629 33-796 limits assumed): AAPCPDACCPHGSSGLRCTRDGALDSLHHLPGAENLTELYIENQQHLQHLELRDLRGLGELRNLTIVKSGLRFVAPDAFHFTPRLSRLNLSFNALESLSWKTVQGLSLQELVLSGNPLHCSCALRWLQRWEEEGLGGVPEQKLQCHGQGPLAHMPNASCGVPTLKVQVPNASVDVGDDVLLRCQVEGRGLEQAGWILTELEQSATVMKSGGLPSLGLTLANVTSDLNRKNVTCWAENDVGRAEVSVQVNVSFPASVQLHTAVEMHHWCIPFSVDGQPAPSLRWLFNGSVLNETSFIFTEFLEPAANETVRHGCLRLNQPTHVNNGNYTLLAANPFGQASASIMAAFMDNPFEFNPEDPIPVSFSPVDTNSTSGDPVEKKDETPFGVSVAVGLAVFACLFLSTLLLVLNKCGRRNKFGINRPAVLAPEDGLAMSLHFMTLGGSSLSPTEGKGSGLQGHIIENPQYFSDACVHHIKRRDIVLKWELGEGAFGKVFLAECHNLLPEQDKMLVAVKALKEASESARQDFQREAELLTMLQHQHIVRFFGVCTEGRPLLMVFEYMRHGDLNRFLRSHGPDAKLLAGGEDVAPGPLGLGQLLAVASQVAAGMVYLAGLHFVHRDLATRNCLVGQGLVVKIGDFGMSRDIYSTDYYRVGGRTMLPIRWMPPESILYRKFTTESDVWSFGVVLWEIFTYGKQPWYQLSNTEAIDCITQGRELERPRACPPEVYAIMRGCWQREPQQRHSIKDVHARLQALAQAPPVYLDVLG
The target in assay [7] is [Pyruvate dehydrogenase (acetyl-transferring)] kinase isozyme 1, mitochondrial (Homo sapiens, UniProt Q15118).
Chain of [Pyruvate dehydrogenase (acetyl-transferring)] kinase isozyme 1, mitochondrial (Q15118 whole entry): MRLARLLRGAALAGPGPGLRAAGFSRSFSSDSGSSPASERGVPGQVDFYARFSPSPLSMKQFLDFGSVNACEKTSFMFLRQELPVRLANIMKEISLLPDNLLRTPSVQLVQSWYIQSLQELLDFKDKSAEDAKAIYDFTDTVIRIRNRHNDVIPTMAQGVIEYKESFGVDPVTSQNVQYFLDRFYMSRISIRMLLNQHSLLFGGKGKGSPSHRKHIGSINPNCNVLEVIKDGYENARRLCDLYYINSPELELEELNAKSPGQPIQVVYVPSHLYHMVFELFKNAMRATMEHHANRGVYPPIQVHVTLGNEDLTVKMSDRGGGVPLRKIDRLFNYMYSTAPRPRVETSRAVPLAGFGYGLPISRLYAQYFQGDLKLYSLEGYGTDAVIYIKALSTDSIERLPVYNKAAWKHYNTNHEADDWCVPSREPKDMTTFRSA
Assay [8] deals with Tyrosine-protein kinase BTK (Homo sapiens, UniProt Q06187). The assay can be described thus: Selectivity interaction (Upstate Kinase Profiler service (Millipore)) EUB0000056c BTK. Conditions: at 1 µM.
Chain of Tyrosine-protein kinase BTK (Q06187 whole entry): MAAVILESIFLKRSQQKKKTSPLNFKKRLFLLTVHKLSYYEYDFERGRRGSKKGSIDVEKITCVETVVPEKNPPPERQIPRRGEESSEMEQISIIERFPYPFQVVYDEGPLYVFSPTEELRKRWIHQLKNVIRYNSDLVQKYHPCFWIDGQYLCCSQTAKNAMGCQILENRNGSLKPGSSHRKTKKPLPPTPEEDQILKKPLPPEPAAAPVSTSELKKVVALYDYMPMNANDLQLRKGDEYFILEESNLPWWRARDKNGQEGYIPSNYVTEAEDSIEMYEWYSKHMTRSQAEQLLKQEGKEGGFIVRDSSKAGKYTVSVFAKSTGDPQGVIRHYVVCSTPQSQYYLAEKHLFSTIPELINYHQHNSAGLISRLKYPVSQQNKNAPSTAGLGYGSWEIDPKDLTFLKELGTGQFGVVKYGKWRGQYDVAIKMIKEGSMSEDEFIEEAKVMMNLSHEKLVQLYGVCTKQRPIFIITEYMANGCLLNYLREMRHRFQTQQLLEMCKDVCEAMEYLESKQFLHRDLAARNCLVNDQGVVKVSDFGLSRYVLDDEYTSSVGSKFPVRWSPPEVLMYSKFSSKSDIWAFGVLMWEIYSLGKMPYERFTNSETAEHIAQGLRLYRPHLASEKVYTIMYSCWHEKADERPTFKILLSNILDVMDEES
Assay [9] has as its target T2, Dual specificity mitogen-activated protein kinase kinase 6 (Homo sapiens) (UniProt P52564).
T2 sequence (whole entry): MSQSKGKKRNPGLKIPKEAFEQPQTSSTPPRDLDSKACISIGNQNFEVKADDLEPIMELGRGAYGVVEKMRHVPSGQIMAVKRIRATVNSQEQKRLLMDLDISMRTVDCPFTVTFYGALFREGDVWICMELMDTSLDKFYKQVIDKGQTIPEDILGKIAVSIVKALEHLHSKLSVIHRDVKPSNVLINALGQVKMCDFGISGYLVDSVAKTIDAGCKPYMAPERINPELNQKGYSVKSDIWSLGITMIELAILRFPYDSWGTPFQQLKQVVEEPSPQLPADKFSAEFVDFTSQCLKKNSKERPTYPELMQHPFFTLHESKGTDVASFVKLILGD
The assay can be described thus: Selectivity interaction (KinomeScan (DiscoverX)) EUB0000092b MAP2K6. Conditions: at 10 µM.

For assay [10], the target named is T3, Serine/threonine-protein kinase BRSK2 (Homo sapiens) (UniProt Q8IWQ3).
T3 sequence (whole entry): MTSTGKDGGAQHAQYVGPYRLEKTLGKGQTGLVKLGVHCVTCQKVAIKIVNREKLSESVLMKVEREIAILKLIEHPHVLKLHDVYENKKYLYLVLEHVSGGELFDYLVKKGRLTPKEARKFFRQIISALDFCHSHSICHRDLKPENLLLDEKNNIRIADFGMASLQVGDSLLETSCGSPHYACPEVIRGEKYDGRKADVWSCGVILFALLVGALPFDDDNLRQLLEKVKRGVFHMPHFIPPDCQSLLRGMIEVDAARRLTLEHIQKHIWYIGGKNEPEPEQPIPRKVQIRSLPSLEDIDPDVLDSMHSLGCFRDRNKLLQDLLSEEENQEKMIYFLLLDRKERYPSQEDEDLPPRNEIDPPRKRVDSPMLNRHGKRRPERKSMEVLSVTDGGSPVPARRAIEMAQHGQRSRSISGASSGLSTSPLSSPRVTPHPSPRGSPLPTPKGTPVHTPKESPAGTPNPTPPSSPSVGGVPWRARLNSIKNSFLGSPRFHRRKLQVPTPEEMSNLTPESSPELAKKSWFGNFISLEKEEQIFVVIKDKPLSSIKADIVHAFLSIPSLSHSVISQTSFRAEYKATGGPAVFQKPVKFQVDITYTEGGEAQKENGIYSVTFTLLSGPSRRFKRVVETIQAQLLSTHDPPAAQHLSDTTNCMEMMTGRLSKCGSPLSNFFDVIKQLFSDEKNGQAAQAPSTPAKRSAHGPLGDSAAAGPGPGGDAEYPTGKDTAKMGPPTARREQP
The assay can be described thus: Selectivity interaction (KinomeScan (DiscoverX)) EUB0000229b BRSK2. The note with it: at 10 µM.

Chain of Epidermal growth factor receptor (Homo sapiens), P00533 [UNDEFINED MUTATION] (P00533 whole entry, looked up, change not shown): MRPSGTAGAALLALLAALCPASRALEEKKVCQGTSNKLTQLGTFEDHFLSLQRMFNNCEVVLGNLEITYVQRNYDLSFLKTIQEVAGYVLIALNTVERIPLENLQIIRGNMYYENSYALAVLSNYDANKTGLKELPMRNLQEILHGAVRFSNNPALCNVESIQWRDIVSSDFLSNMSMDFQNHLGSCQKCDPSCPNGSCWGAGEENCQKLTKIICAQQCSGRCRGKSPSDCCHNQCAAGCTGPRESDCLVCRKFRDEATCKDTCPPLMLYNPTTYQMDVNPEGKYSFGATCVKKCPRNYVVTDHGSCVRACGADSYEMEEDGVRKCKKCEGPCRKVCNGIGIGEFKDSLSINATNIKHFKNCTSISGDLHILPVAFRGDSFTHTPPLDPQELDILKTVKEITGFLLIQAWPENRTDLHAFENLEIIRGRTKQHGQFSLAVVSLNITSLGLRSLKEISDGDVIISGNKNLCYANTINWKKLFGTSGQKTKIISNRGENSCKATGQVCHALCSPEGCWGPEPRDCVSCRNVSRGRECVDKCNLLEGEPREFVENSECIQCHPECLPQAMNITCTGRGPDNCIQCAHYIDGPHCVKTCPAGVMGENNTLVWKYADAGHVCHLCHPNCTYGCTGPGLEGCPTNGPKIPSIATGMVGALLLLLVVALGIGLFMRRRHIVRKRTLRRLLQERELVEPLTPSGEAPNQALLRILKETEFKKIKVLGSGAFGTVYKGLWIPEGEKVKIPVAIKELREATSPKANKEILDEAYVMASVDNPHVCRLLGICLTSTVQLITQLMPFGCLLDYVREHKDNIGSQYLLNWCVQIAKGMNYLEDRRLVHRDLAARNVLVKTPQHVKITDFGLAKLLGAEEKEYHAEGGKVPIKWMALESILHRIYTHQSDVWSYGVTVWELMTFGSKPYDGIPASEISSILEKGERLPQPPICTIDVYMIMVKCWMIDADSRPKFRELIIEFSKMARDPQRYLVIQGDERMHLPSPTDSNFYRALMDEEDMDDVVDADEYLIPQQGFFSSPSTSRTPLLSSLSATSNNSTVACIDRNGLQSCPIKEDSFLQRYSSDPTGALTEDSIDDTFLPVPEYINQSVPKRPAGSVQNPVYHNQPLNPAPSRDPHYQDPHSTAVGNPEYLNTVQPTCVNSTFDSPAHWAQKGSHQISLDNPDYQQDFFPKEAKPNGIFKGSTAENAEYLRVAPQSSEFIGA
Chain of Protein kinase C delta type (Homo sapiens) (Q05655 whole entry, looked up): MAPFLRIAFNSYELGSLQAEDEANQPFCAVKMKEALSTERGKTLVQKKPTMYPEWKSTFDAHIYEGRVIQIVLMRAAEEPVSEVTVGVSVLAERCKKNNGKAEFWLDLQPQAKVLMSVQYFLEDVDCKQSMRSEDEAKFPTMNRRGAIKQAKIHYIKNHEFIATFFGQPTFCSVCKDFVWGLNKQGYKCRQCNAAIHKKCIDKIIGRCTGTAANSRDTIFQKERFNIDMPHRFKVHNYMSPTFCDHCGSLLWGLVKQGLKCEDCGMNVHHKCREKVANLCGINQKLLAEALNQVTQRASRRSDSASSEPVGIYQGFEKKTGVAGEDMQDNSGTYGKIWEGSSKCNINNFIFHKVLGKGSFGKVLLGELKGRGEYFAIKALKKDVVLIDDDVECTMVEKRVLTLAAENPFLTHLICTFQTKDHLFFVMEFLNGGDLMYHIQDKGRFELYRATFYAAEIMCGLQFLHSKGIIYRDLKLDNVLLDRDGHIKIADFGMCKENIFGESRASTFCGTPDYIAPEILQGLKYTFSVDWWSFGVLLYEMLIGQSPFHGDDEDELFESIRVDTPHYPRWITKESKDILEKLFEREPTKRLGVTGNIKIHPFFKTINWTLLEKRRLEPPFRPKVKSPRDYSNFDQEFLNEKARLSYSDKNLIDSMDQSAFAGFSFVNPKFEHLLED

As for `Cn1cc(-n2cnc3c(NCc4nc5cc(Cl)c(Cl)cc5[nH]4)nc(N4CCOCC4)nc32)cn1`, the % of control in assay [1] was -0.676%.

Consider `COCC(=O)NC/C=C/c1ccc2ncnc(Nc3ccc(Oc4ccc(C)nc4)c(C)c3)c2c1` [CP-724714], for which, in assay [2], the % of control was determined as 100%.

As for `N#Cc1cccc(-c2c[nH]c3ncnc(N4CCOCC4)c23)c1`, the % of inhibition in assay [3] is -6%.

`CC(=O)c1cc(-c2ccccc2OCC2CC2)c2ncccn12`: the % of control in assay [4] amounted to 96%.

As to `O=C(NOC[C@H](O)CO)c1ccc(F)c(F)c1Nc1ccc(I)cc1F`, the % of control in [5] turned out to be 70%.

In the case of `CN1Cc2nccc(-c3cn(C)nc3-c3ccc(F)cc3)c2C1=O`, in assay [6], the % of inhibition was 12%.

For orientation: IC50 means the concentration at which inhibition is half-maximal. As for `CCc1cccc(CC)c1NC(=O)c1nn(C)c2c1CCc1cnc(Nc3ccc(C(=O)NC4CCN(C)CC4)cc3OC(F)(F)F)nc1-2`, in [7], the IC50 was over 10 µM.

As to `Cc1ccc(-c2ccc3c(ccc4sc5c(c43)NC[C@@H](C)NC5=O)n2)cn1`, the % of inhibition in assay [8] stood at 6%.

Turning to `CCC(=O)N1CCN(c2ccc(-n3c(=O)ccc4cnc5ccc(-c6cnc7ccccc7c6)cc5c43)cc2C(F)(F)F)CC1`, the % of control in [9] turned out to be 100%.

`COc1cc(N(C)c2ccnc3ccc(C(F)(F)F)cc23)cc(OC)c1OC` yielded a % binding in [10] of 90%.
